The results in this text go back to US20250313563A1, “GLYCOGEN SYNTHASE KINASE 3 INHIBITORS AND USES THEREOF” (The Broad Institute, Inc., priority 2022, published 2025).

Where two headings read alike, the source gives them in different places.

Experiment [1] addresses GSK3α (GST-full length GSK3α) (Homo sapiens (Human), UniProt P49840). The experiment is described as follows: GSK3α TR-FRET kinase assay. Particulars: IC50. The class given is biochemical. The protocol:
(§1) TR-FRET Assay: The assay was performed in a white, 384 well, low volume, flat bottom plate (Grenier). After a 30 minute preincubation in assay buffer with the indicated concentration of compound, the kinase activity was initiated by the addition of the substrates. 1 nM GSK3α (GST-full length GSK3α [SignalChem G08-10G]) or 1 nM GSK3b (GST-full length GSK3b: [SignalChem G08-9G]) were then incubated at ambient temperature for 100 minutes in 10 μL of 50 mM Tris, pH 7.5, 20 mM MgCl2, 0.05 mM DTT, 100 μg/mL BSA and 1% DMSO, with 200 nM biotinylated peptide substrate (biotinylated and S645 phosphorylated glycogen synthase 631-650) and either 4 μM ATP (GSK3α, Table 16) or 2 μM ATP (GSK3b, Table 16) or 1 mM ATP (Table 17). The kinase activity was quenched with 2 μL of 250 mM EDTA. A 10 μL volume of 40 nM Strepavidin-d2, 2 nM Tb^2+-pSer641 antibody in TR-FRET Detection Buffer (Invitrogen) was then added. After 60 min at room temperature the plate was read on Envision plate reader using Ex: 340 nm, Em: 615 nm and […]. The normalized 665/615 Signal ratio versus log compound concentration was analyzed by XLFIT to yield IC50 values.

Experiment [2] deals with GSK3b (GST-full length GSK3b) (Homo sapiens (Human), UniProt P49841). The experiment is described as follows: GSK3b TR-FRET kinase assay. The class given is biochemical. Here is the method:
as §1

[3] abbreviates: 1 nM GSK3α, 4 μM ATP, 30 minute preincubation, Table 16, read-out: GSK3-A TR-FRET BIOCHEMICAL (TR-FRET).
Where [4] appears, read: read-out: GSK3-A (TR-FRET 1 mM ATP), GMean, 1 mM ATP, geometric mean.
Where [5] appears, read: 1 nM GSK3b, 2 μM ATP, 30 minute preincubation, Table 16, read-out: GSK3-B TR-FRET BIOCHEMICAL (TR-FRET), IC50.
Setting [6] is: read-out: GSK3-B (TR-FRET 1 mM ATP), GMean, IC50, 1 mM ATP, geometric mean.
Where [7] appears, read: 1 nM GSK3α, 4 μM ATP, 30 minute preincubation, geometric mean, read-out: GSK3-A TR-FRET BIOCHEMICAL (TR-FRET), GMean.
Setting [8] is: 1 nM GSK3b, 2 μM ATP, 30 minute preincubation, geometric mean, read-out: GSK3-B TR-FRET BIOCHEMICAL (TR-FRET), GMean, IC50.
[9] abbreviates: 1 nM GSK3b, 2 μM ATP, 30 minute preincubation, Table 16, read-out: GSK3-B TR-FRET BIOCHEMICAL (TR-FRET).
Where [10] appears, read: 1 nM GSK3b, 2 μM ATP, 30 minute preincubation, read-out: GSK3-B TR-FRET BIOCHEMICAL (TR-FRET), IC50.

Sequence of GSK3α (GST-full length GSK3α) (P49840 whole entry): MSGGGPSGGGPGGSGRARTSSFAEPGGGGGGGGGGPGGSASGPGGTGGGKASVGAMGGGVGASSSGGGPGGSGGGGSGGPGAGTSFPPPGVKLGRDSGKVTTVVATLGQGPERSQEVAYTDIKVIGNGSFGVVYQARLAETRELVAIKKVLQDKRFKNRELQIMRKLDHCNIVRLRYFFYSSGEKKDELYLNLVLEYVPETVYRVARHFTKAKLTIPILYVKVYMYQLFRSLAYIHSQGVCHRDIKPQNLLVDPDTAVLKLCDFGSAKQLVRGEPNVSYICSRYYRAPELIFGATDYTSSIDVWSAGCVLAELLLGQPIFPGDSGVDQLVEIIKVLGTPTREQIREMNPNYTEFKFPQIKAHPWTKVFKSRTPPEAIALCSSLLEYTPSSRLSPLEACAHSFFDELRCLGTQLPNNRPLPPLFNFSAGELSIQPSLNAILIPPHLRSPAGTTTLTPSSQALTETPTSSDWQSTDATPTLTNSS
Sequence of GSK3b (GST-full length GSK3b) (P49841 whole entry): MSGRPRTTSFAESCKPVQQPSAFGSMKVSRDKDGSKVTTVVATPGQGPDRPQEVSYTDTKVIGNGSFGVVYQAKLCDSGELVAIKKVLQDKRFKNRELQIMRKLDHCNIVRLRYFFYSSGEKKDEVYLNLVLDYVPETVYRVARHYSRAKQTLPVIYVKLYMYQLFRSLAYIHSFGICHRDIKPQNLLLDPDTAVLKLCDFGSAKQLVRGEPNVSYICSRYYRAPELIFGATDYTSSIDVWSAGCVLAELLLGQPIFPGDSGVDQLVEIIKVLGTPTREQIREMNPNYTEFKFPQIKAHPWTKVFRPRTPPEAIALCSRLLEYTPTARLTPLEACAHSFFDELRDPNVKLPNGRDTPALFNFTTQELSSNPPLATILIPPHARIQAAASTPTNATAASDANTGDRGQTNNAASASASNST

For `CCC1(c2cccc(-c3ccncc3)c2)C2=C(CC(C)(C)CC2=O)Nc2n[nH]c(C(F)(F)F)c21` (stereo not drawn) [Compound 917292], the IC50 was 100 to 1000 nM in experiment [1] (setting [3]), > 5000 nM in experiment [1] (setting [4]), 100 to 1000 nM in experiment [2] (setting [5]) and > 5000 nM in experiment [2] (setting [6]).
Take `CCC1(c2cccc(N3CCCC3)c2)C2=C(CC(C)(C)CC2=O)Nc2n[nH]cc21` (stereo not drawn) [Compound 801317]: the IC50 in experiment [1] (setting [7]) and in experiment [2] (setting [8]) was 100 to 1000 nM in each case.
Consider `CCC1(c2cccc(-c3cn[nH]c3)c2)C2=C(CC(C)(C)CC2=O)Nc2n[nH]c(C)c21` (stereo not drawn) [Compound 913044], for which the IC50 in experiment [1] (setting [3]) and in experiment [2] (setting [5]) was 100 to 1000 nM each time.
Consider `CCC1(c2cccc(Oc3ncccn3)c2)C2=C(CC(C)(C)NC2=O)Nc2n[nH]c(C(F)(F)F)c21` (stereo not drawn) [Compound 950323], for which the IC50 in experiment [1] (setting [3]) and in experiment [2] (setting [5]) was ≤ 100 nM in each case.
On to `CCC1(c2cccc(-c3cnn4c3CCCC4)c2)C2=C(CC(C)(C)CC2=O)Nc2n[nH]cc21` (stereo not drawn) [Compound 926836], for which the figures for the IC50 in experiment [1] (setting [3]) and in experiment [2] (setting [5]) were ≤ 100 nM and 100 to 1000 nM, respectively.
With `CCC1(c2cccc(-c3ccncc3C)c2)C2=C(CC3(CCOC3)NC2=O)Nc2n[nH]cc21` (stereo not drawn) [Compound 948648], the IC50 in experiment [1] (setting [7]) and in experiment [2] (setting [8]) was > 5000 nM in each case.
Turning to `CCC1(c2cccc(-c3ccnc(OC)c3F)c2)C2=C(CC(C)(C)NC2=O)Nc2n[nH]cc21` (stereo not drawn) [Compound 948520], the IC50 in experiment [1] (setting [7]) is 100 to 1000 nM; in experiment [2] (setting [8]), 1000 to 5000 nM.
For the compound `CC[C@@]1(c2cccc(C(F)(F)F)c2)C2=C(Nc3n[nH]cc31)[C@H](C)N(C)C2=O` [Compound 913473], the IC50 in experiment [2] (setting [9]) is 100 to 1000 nM.
Take `CCC1(c2cccc(-c3ncnn3C)c2)C2=C(CC(C)(C)CC2=O)Nc2n[nH]cc21` (stereo not drawn) [Compound 945472]: in experiment [2] (setting [9]), the IC50 was 100 to 1000 nM.
As for `CCC1(c2cccc(-c3c(C)nnn3C)c2)C2=C(CC(C)(C)CC2=O)Nc2n[nH]cc21` (stereo not drawn) [Compound 946099], the IC50 in experiment [2] (setting [6]) fell in the range of 100 to 1000 nM.
As to `CC(C)(C)Cc1[nH]nc2c1C(C)(c1cccc(N3CCOCC3)c1)C1=C(CC(C)(C)CC1=O)N2` (stereo not drawn) [Compound 126399], in experiment [2] (setting [6]), the IC50 is > 5000 nM.
With `CCC1(c2cccc(N(C)c3cc(C)ccn3)c2)C2=C(CC(C)(C)CC2=O)Nc2n[nH]cc21` (stereo not drawn) [Compound 945609], the IC50 in experiment [2] (setting [9]) lay within 100 to 1000 nM.
As for `CN(C)S(=O)(=O)c1cccc(C2(C)C3=C(CC(C)(C)CC3=O)Nc3n[nH]c(CC(C)(C)C)c32)c1` (stereo not drawn) [Compound 126013], in experiment [2] (setting [6]), the IC50 is > 5000 nM.
As to `CCC1(c2cccc(C(F)(F)F)c2)C2=C(Nc3n[nH]cc31)C(C)N(C)C2=O` (stereo not drawn) [Compound 913454], the IC50 in experiment [2] (setting [9]) is 100 to 1000 nM.
Turning to `CCC1(c2cccc(N3CCCCC3)c2)C2=C(CC(C)(C)NC2=O)Nc2n[nH]c(C(F)(F)F)c21` (stereo not drawn) [Compound 947861], in experiment [2] (setting [6]), the IC50 lay within 100 to 1000 nM.
As to `Cc1ccc(S(C)(=O)=O)cc1C1(C)C2=C(CC(C)(C)CC2=O)Nc2n[nH]c(CC(C)(C)C)c21` (stereo not drawn) [Compound 126398], the IC50 in experiment [2] (setting [6]) was > 5000 nM.
With `CC(C)(C)Cc1[nH]nc2c1C(C)(c1cc(S(C)(=O)=O)ccc1F)C1=C(CC(C)(C)CC1=O)N2` (stereo not drawn) [Compound 125977], in experiment [2] (setting [6]), the IC50 is > 5000 nM.
Consider `CCC1(c2cccc(-c3ccncn3)c2)C2=C(CC(C)(C)CC2=O)Nc2n[nH]cc21` (stereo not drawn) [Compound 810488], for which the IC50 in experiment [2] (setting [8]) is 100 to 1000 nM.
Still for that read-out and setting: the figure for `CCC1(c2cccc(C3CCOCC3)c2)C2=C(CC(C)(C)CC2=O)Nc2n[nH]cc21` (stereo not drawn) [Compound 791273] is 100 to 1000 nM.
As to `Cn1cc(-c2cccc(C3(C)C4=C(CC(C)(C)CC4=O)Nc4n[nH]c(CC(C)(C)C)c43)c2)cn1` (stereo not drawn) [Compound 126394], in experiment [1] (setting [4]), the IC50 was > 5000 nM.
With `C[S+]([O-])c1cccc(C2(C)C3=C(CC(C)(C)CC3=O)Nc3n[nH]c(CC(C)(C)C)c32)c1` (stereo not drawn) [Compound 126193], in experiment [2] (setting [6]), the IC50 was > 5000 nM.
As for `CCC1(c2cccc(-c3cnn(C)c3)c2)C2=C(CC(C)(C)NC2=O)Nc2n[nH]c(C)c21` (stereo not drawn) [Compound 944027], the IC50 in experiment [2] (setting [10]) is 100 to 1000 nM.
On the same count and under the same terms, the figure for `CCC1(c2cccc(C(F)(F)F)c2)C2=C(CC(C)NC2=O)Nc2n[nH]cc21` (stereo not drawn) [Compound 912096] is 100 to 1000 nM.
As for `CCC1(c2cccc(C(F)(F)F)c2)C2=C(CCN(c3cccc(C)c3)C2=O)Nc2n[nH]cc21` (stereo not drawn) [Compound 948052], in experiment [2] (setting [8]), the IC50 is 100 to 1000 nM.
